In patent US20140163095A1, “USE OF ERIBULIN IN THE TREATMENT OF BREAST CANCER” (priority 2012, published 2014):
Marks after values point to notes of the source that are not given here.

Assays:
[1] = system: locally recurrent or metastatic HER2 negative breast cancer; assay: Phase II clinical trial of eribulin mesylate as first-line treatment (Part 2, additional data); type: in vivo, human
Excerpt: This example provides additional data obtained from the study described above in Example 2. The baseline demographics and characteristics of patients in the study are as set forth below in Table 6.

[2] = system: subjects with locally recurrent or metastatic HER2 negative breast cancer; assay: Phase II first-line trial, safety outcomes
Description: (§1) A multi-center, single-arm, phase II clinical trial of eribulin mesylate was performed to evaluate the objective response rate (ORR) (according to RECIST v1.1) to first-line treatment with single-agent eribulin mesylate in subjects with locally recurrent or metastatic HER2 negative breast cancer. Secondary objectives included the safety and tolerability of eribulin mesylate, time to first response, duration of response (DOR), and progression free survival (PFS).

[3] = system: locally recurrent or metastatic HER2 negative breast cancer; assay: Phase II clinical trial of eribulin mesylate as first-line treatment (Part 1); type: in vivo, human; conditions: for DOR (duration of response), Median months (95% CI) / TTR (time to first response), Median months (95% CI): 13 responders
Description: as §1
Patients were excluded from the study if they had inflammatory breast cancer or had received prior chemotherapy, biologic therapy, or investigational therapy for locally recurrent or metastatic breast cancer (patients who received prior endocrine therapy were permitted).
HER2 status was determined by either fluorescence in situ hybridization (FISH) or 0 or 1+ by immunohistochemical (IHC) staining. Subjects with an HER2:FISH ratio of 1.8:2.2 were eligible, consistent with ASCO/CAP guidelines (Wolff et al., J. Clin. Oncol. 25:118-145, 2007).

[4] = ER−/PR−/HER2−, n 2, CI not available
[5] = All Subjects, listed as eribulin

SMILES: C=C1C[C@@H]2CC[C@@]34C[C@H]5O[C@H]6[C@@H](O3)[C@H]3O[C@H](CC[C@@H]3O[C@H]6[C@H]5O4)CC(=O)C[C@@H]3[C@@H](OC)[C@@H](C[C@H](O)CN)O[C@H]3C[C@H]3O[C@@H](CC[C@@H]1O2)C[C@@H](C)C3=C.CS(=O)(=O)O [Eribulin, 11,15:18,21:24,28-Triepoxy-7,9-ethano-12,15-methano-9H,15H-furo[3,2-i]furo[2′,3′:5,6]pyrano[4,3-b][1,4]dioxacyclopentacosin-5(4H)-one, 2-[(2S)-3-amino-2-hydroxypropyl]hexacosahydro-3-methoxy-26-methyl-20,27-bis(methylene)-, (2R,3R,3aS,7R,8aS,9S,10aR,11S,12R,13aR,13bS,15S,18S,21S,24S,26R,28R,29aS)-methanesulfonate (salt)]
- DOR (duration of response), Median months (95% CI) ([1]; ALL, 16 responders): 5.8 (4.7-10.6) months
- TTR (time to first response), Median months (95% CI) ([1]; ALL, 16 responders): 1.4 (1.2-2.7) months
- TTR (time to first response), Median months (95% CI) ([1]; ALL, 16 responders, listed as eribulin): 1.4 months
- PFS, Median months (95% CI) ([1]; ALL, N 56): 6.8 (4.4-7.6) months
- PFS, Median months (95% CI) ([1]; ALL, N 56, listed as eribulin): 6.8 months
- Clinical benefit rate (CR + PR + ≧6 months SD) ([1]; ALL, N = 56): 29 (51.8) n (%)
- Complete response (CR) ([1]; ALL, N = 56): 0 n (%)
- Disease control rate (CR + PR + SD) ([1]; ALL, N = 56): 42 (75.0) n (%)
- Not evaluable/unknown (response category) ([1]; ALL, N = 56): 3 (5.4) n (%)
- Objective response rate (ORR) ([1]; ALL, N = 56): 16 (28.6) n (%)
- Partial response (PR) ([1]; ALL, N = 56): 16 (28.6) n (%)
- Progressive disease (PD) ([1]; ALL, N = 56): 11 (19.6) n (%)
- ORR ([1]; ER+ subgroup): 34.1%
- disease control rate ([1]; ER+ subgroup): 85.4%
- DOR, Median months (95% CI) ([1]; ER+, n 14): 7.4 (4.6-27.5) months
- TTR, Median months (95% CI) ([1]; ER+, n 14): 2.0 (1.3-2.7) months
- PFS, Median months (95% CI) ([1]; ER+, n 41): 7.4 (6.1-11.9) months
- PFS, Median months (95% CI) ([1]; ER+, n 41, listed as eribulin): 7.4 months
- Clinical benefit rate (CR + PR + ≧6 months SD) ([1]; ER+, n = 41): 26 (63.4) n (%)
- Complete response (CR) ([1]; ER+, n = 41): 0 n (%)
- Disease control rate (CR + PR + SD) ([1]; ER+, n = 41): 35 (85.4) n (%)
- Not evaluable/unknown (response category) ([1]; ER+, n = 41): 1 (2.4) n (%)
- Objective response rate (ORR) ([1]; ER+, n = 41): 14 (34.1) n (%)
- Partial response (PR) ([1]; ER+, n = 41): 14 (34.1) n (%)
- Progressive disease (PD) ([1]; ER+, n = 41): 5 (12.2) n (%)
- DOR, Median months [1, 4]: 5.2* months
- TTR, Median months [1, 4]: 1.1* months
- PFS, Median months (95% CI) ([1]; ER−/PR−/HER2−, n 12): 3.4 (1.2-6.8) months
- sum of target lesion diameters from baseline to postbaseline nadir ([1]; FIG. 12, in words): majority of patients experienced a decrease
- Objective response rate (ORR) ([1]; Triple negative (ER−/PR−/HER2−), n = 12): 2 (16.1) n (%)
- Clinical benefit rate (CR + PR + ≧6 months SD) ([1]; Triple negative, n = 12): 3 (25.0) n (%)
- Complete response (CR) ([1]; Triple negative, n = 12): 0 n (%)
- Disease control rate (CR + PR + SD) ([1]; Triple negative, n = 12): 6 (50.0) n (%)
- Not evaluable/unknown (response category) ([1]; Triple negative, n = 12): 1 (8.3) n (%)
- Partial response (PR) ([1]; Triple negative, n = 12): 2 (16.7) n (%)
- Progressive disease (PD) ([1]; Triple negative, n = 12): 5 (41.7) n (%)
- ORR ([1]; all patients (16/56)): 28.6%
- median PFS ([1]; patients who did not receive prior A/T): 5.7 months
- median PFS ([1]; patients who had received prior A/T): 5.9 months
- clinical benefit rate (CBR) ([1]; patients with prior A/T (15/33)): 45.5%
- ORR ([1]; patients with prior neo/adjuvant anthracyclines and/or taxanes (A/T) (9/33)): 27.3%
- incidence of markedly abnormal lab value: low platelets ([2]; 1/51): 2%
- leucopenia (treatment-related SAE) ([2]; 1 patient): 1.8%
- patients with an abnormal but not clinically significant finding ([2]; 3/52, throughout the study): 5.8%
- Febrile neutropenia (treatment-related SAE) ([2]; 3 patients): 5.4%
- Treatment-related SAEs ([2]; 5 patients): 8.9%
- patients who discontinued the study due to an AE ([2]; 6 patients): 10.7%
- incidence of markedly abnormal lab value: low lymphocytes ([2]; 8/44): 18.2%
- incidence of markedly abnormal lab value: low hemoglobin ([2]; 8/55): 14.5%
- patients with dose interrupted/delayed due to treatment-related AEs ([2]; 20 patients): 35.7%
- patients with dose reduced due to treatment-related AEs ([2]; 20 patients): 35.7%
- Treatment-related AEs leading to dose adjustment (interruption/delay, reduction, or discontinuation) ([2]; 30 patients): 53.6%
- incidence of markedly abnormal lab value: low leukocytes ([2]; 31/54): 57.4%
- patients with a treatment-related AE with CTCAE grade ¾ ([2]; 36 patients): 64.3%
- incidence of markedly abnormal lab value: low neutrophils ([2]; 41/53): 77.4%
- Treatment-related AE: Alopecia ([2]; All grades, N = 56): 47 (83.9) n (%)
- Treatment-related AE: Anemia ([2]; All grades, N = 56): 20 (35.7) n (%)
- Treatment-related AE: Constipation ([2]; All grades, N = 56): 15 (26.8) n (%)
- Treatment-related AE: Diarrhea ([2]; All grades, N = 56): 14 (25.0) n (%)
- Treatment-related AE: Fatigue ([2]; All grades, N = 56): 34 (60.7) n (%)
- Treatment-related AE: Leukopenia ([2]; All grades, N = 56): 19 (33.9) n (%)
- Treatment-related AE: Nausea ([2]; All grades, N = 56): 27 (48.2) n (%)
- Treatment-related AE: Neutropenia ([2]; All grades, N = 56): 40 (71.4) n (%)
- Treatment-related AE: Peripheral neuropathy ([2]; All grades, N = 56): 32 (57.1) n (%)
- Treatment-related AE: Anemia ([2]; Grade 3/4, N = 56): 2 (3.6) n (%)
- Treatment-related AE: Constipation ([2]; Grade 3/4, N = 56): 0 n (%)
- Treatment-related AE: Diarrhea ([2]; Grade 3/4, N = 56): 0 n (%)
- Treatment-related AE: Fatigue ([2]; Grade 3/4, N = 56): 1 (1.8) n (%)
- Treatment-related AE: Leukopenia ([2]; Grade 3/4, N = 56): 12 (21.4) n (%)
- Treatment-related AE: Nausea ([2]; Grade 3/4, N = 56): 0 n (%)
- Treatment-related AE: Neutropenia ([2]; Grade 3/4, N = 56): 28 (50.0) n (%)
- Treatment-related AE: Peripheral neuropathy ([2]; Grade 3/4, N = 56): 11 (19.6) n (%)
- Alopecia, neutropenia, fatigue, and peripheral neuropathy (most commonly observed treatment-related AEs), each occurring in patients ([2]; human, in vivo): > 50%
- duration of grade ¾ peripheral neuropathy (median) ([2]; human, in vivo): 2.3 months
- median time to first occurrence of peripheral neuropathy ([2]; human, in vivo): 4 months
- AE requiring drug withdrawal in the remaining discontinued patient ([2]; in words): prolonged QT interval requiring drug withdrawal
- grade ¾ neutropenia, patients ([2]; most common grade ¾ AE): 50%
- Febrile neutropenia (grade 3/4) ([2]; number of patients): 4 patients
- discontinuations for which peripheral neuropathy was responsible ([2]; of the 6 events resulting in discontinuations): 5
- DOR (duration of response), Median months (95% CI) ([3]; All Subjects): 7.4 (3.29, NE) months
- TTR (time to first response), Median months (95% CI) ([3]; All Subjects): 1.4 (1.31, 2.69) months
- DOR (duration of response), Median months (95% CI) [3, 5]: 7.4 months
- TTR (time to first response), Median months (95% CI) [3, 5]: 1.4 months
- PFS, Median months (95% CI) ([3]; All Subjects, N 48): 5.9 (3.48, 7.39) months
- PFS, Median months (95% CI) ([3]; All Subjects, N 48, listed as eribulin): 5.9 months
- Clinical benefit rate (CR + PR + durable SD) ([3]; All, N = 48): 22 (45.8) n (%)
- Complete response (CR) ([3]; All, N = 48): 0 n (%)
- Disease control rate (CR + PR + SD) ([3]; All, N = 48): 36 (75.0) n (%)
- Not evaluable/unknown (response category) ([3]; All, N = 48): 1 (2.1) n (%)
- Objective response rate (ORR) ([3]; All, N = 48): 13 (27.1) n (%)
- Partial response (PR) ([3]; All, N = 48): 13 (27.1) n (%)
- Progressive disease (PD) ([3]; All, N = 48): 11 (22.9) n (%)
- DOR, Median months (95% CI) ([3]; ER+ Subjects, N 10): 7.4 (3.29, NE) months
- TTR, Median months (95% CI) ([3]; ER+ Subjects, N 10): 1.4 (1.22, 2.66) months
- PFS, Median months (95% CI) ([3]; ER+ Subjects, N 35): 6.7 (4.14, 8.54) months
- Clinical benefit rate (CR + PR + durable SD) ([3]; ER+, N = 35): 19 (54.3) n (%)
- Complete response (CR) ([3]; ER+, N = 35): 0 n (%)
- Disease control rate (CR + PR + SD) ([3]; ER+, N = 35): 29 (82.9) n (%)
- Not evaluable/unknown (response category) ([3]; ER+, N = 35): 0 n (%)
- Objective response rate (ORR) ([3]; ER+, N = 35): 10 (28.6) n (%)
- Partial response (PR) ([3]; ER+, N = 35): 10 (28.6) n (%)
- Progressive disease (PD) ([3]; ER+, N = 35): 6 (17.1) n (%)
- sum of target lesion diameters from baseline to post-baseline nadir ([3]; FIG. 10, in words): majority of patients experienced a decrease
- Objective response rate (ORR) ([3]; Triple Negative (ER−/PR−/HER2−), N = 10): 3 (30.0) n (%)
- TTR, Median months (95% CI) ([3]; Triple Negative Subjects, N 3): 2.9 (1.15, 5.59) months
- PFS, Median months (95% CI) ([3]; Triple Negative Subjects, N 10): 4.7 (1.05, NE) months
- Clinical benefit rate (CR + PR + durable SD) ([3]; Triple Negative, N = 10): 3 (30.0) n (%)
- Complete response (CR) ([3]; Triple Negative, N = 10): 0 n (%)
- Disease control rate (CR + PR + SD) ([3]; Triple Negative, N = 10): 6 (60.0) n (%)
- Not evaluable/unknown (response category) ([3]; Triple Negative, N = 10): 1 (10.0) n (%)
- Partial response (PR) ([3]; Triple Negative, N = 10): 3 (30.0) n (%)
- Progressive disease (PD) ([3]; Triple Negative, N = 10): 3 (30.0) n (%)
- Objective response rate (ORR) ([3]; all patients (13/48)): 27.1%
